Assay: k' factor value (hydrophobicity) by high-performance liquid column chromatography on octadecylsilane column
Assay type: physicochemical
Conditions: unconjugated steroid; 75% methanol in water, apparent pH 5.0, octadecylsilane column
Protocol: Preferably the steroid used in the invention is characterized in that the unconjugated derivative of the steroid is retained on a hydrophobic column for a length of time sufficient to produce a k' factor value of at least 7, the k' factor value being obtained by subjecting a monomeric solution of 1 mg/ml of such steroid derivative to high-performance liquid column chromatography at 3,000 psi, using a 250×4.6 mm column having octadecylsilane-coated 5 μm micro silica particles as the stationary phase and a mobile phase, delivered at 1.0 ml/min., consisting of 75% methanol in water, v/v, buffered with 0.005 M KH2 PO4 /H3 PO4 to give an apparent pH value, as measured using a glass electrode, of 5.0, the k' factor value being defined by k'=(tr -t0)/t0, where t0 is the retention time in the column of the solvent front and tr is the retention time in the column of the steroid derivative as measured by obtaining the elution profile of the steroid derivative by absorbance at 210 nm.
The structure of the steroid molecule affects its chemical properties and thus its functioning as a drug transporting molecule. We believe that all of the steroid molecules used in the invention facilitate transport by self-associating to form reversed micelles within the membrane across which the drug is being transported; these reversed micelles, it is believed, function as pores, allowing the drug to pass through. A measure of the ability of a given steroid molecule's ability to form such reversed micelles is the hydrophobicity of the unconjugated form of the molecule, a property which can be quantified using the k' factor value, which is computed by observing the steroid's retention time in a high-performance liquid chromatography (HPLC) column under the conditions described above. As mentioned above, the k' factor value of the unconjugated derivative of the steroid should be at least 7 for the steroid to be suitable in the therapeutic compositions of the invention.

| k' factor value | SMILES |
| --- | --- |
| 9.5 | CC(=O)O[C@@H]1[C@H]2[C@H](C)[C@H](O)CC[C@]2(C)[C@@H]2CC[C@H]3/C(=C(\CCC=C(C)C)C(=O)O)[C@@H](OC(C)=O)C[C@]3(C)[C@@]2(C)[C@H]1O [cephalosporin P1] |
| 4.7 | C[C@H](CCC(=O)O)[C@H]1CC[C@H]2[C@@H]3[C@@H](O)C[C@@H]4C[C@H](O)CC[C@]4(C)[C@H]3CC[C@]12C [ursodeoxycholic acid] |

| SMILES | k' factor value |
| --- | --- |
| CC(=O)O[C@H]1C[C@@]2(C)[C@@H](CC[C@H]3[C@@]4(C)C=CC(=O)[C@@H](C)[C@@H]4[C@H](OC(C)=O)C(=O)[C@@]32C)/C1=C(\CCC=C(C)C)C(=O)O [helvolic acid] | 4.7 |

Source: patent US4548922A, “Drug administration” (Beth Israel Hospital, priority 1983, dated 1985)
